Laboratory results reported in US9120849B2 (priority 2000, dated 2015).
Where two headings read alike, the source gives them in different places.

Tested on: HIV
Conditions: CEM cells
Experimental: This example describes one method of inactivation of the purified virus according to the invention by crosslinking of surface proteins. […] Titrations of the fixative were preformed above and below the concentration recommended by the CDC for inactivation of virus in biological fluids (May 8, 1992/41 (RR-8); 001 CDC Guidelines for the Performance of CD4+ T-Cell Determinations in Persons with Human Immunodeficiency Virus Infection). Initially, purified virus was slowly thawed at 2-8° C. for 6-8 hours to minimize lysis of the virus. Next, while on ice, virus was diluted with cold PBS to a final concentration of approximately 1×10^10 copies/mL (cp/mL). […] The reaction mixtures were then incubated at 2-8° C. for 60 minutes while gently rocking. […] After the addition of glycine the reactions were gently rocked for 2 hr. at 2-8° C. To remove glycine and any excess unquenched fixative each reaction mixture was then dialyzed (10-14K m.w. cutoff) against 1 L PBS (pH 7.4, 2-8° C.) for 4 changes. Dialyzed virus was then transferred into a 15 mL tube and centrifuged for 10 min. at 3,000×g to pellet any precipitated virus. A sample of each supernatant was then tested in cell culture for the presence of infectious virus.
The modified virus produced as described in Example 2 was tested to ensure the process inactivated the virus. As an illustration, the CEM cell line, obtained from the American Type Culture Collection was used as a host cell for viral infectivity studies. Advantages of using this line are that establishment of in vitro HIV infection requires relatively few virions and that the infection is chronic rather than lytic, facilitating analysis. For these studies, infection is detected and followed using the ZeptoMetrix HIV p24 Antigen EIA (ZeptoMetrix, Buffalo N.Y.).
CEM cells are cultured in RPMI-1640 containing 10% FBS in 24 well plates Cells are plated at 10^5 cells per well in a 1 ml volume and 100 ul of various dilutions of virus, either treated or untreated, are added to individual wells. Cultures are fed twice weekly by 50% media replacement and culture supernatants are assayed for HIV p24. All cultures initially contain HIV p24. However, in cultures where virus is noninfectious HIV p24 levels decrease over time eventually reaching background levels.
Different dilutions (1:8,000, 1:80,000, and 1:800,000) of treated virus were then placed into cultures of CEM cells and p24 assays were performed on culture supernatants on days 3, 7, 10, and 14 post-inoculation. Data are expressed as pg/ml of HIV p24 protein in the culture supernatants. The standard curve for the p24 assay is linear from 7.8 pg/ml to 125 pg/ml. HIV p24 concentrations below 7.8 pg/ml are expressed as “<7.8 pg/ml” to indicate sensitivity of the assay, and values above 125 pg/ml are expressed as “>125 pg/ml” since the assay is nonlinear above 125 pg/ml.

Measured: HIV p24 protein in culture supernatants

paraformaldehyde
34.2 pg/mL: 1.25% paraformaldehyde 60 min, treated HIV diluted 1:8,000, 7 days post-inoculation
109 pg/mL: 0.625% paraformaldehyde 60 min, treated HIV diluted 1:8,000, 7 days post-inoculation
>125 pg/mL: exposure time 15 minutes, treated HIV diluted 1:8,000, 3 days post-inoculation | exposure time 15 minutes, treated HIV diluted 1:8,000, 7 days post-inoculation
22.9 pg/mL: 0.625% paraformaldehyde 60 min, treated HIV diluted 1:8,000, 10 days post-inoculation
41.9 pg/mL: 1.25% paraformaldehyde 60 min, treated HIV diluted 1:8,000, 3 days post-inoculation
<7.8 pg/mL: 0.625% paraformaldehyde 60 min, treated HIV diluted 1:8,000, 14 days post-inoculation | 0.625% paraformaldehyde 60 min, treated HIV diluted 1:80,000, 3 days post-inoculation | 0.625% paraformaldehyde 60 min, treated HIV diluted 1:80,000, 7 days post-inoculation | 0.625% paraformaldehyde 60 min, treated HIV diluted 1:80,000, 10 days post-inoculation | 0.625% paraformaldehyde 60 min, treated HIV diluted 1:80,000, 14 days post-inoculation | 0.625% paraformaldehyde 60 min, treated HIV diluted 1:800,000, 3 days post-inoculation | 0.625% paraformaldehyde 60 min, treated HIV diluted 1:800,000, 7 days post-inoculation | 0.625% paraformaldehyde 60 min, treated HIV diluted 1:800,000, 10 days post-inoculation | 0.625% paraformaldehyde 60 min, treated HIV diluted 1:800,000, 14 days post-inoculation | 1.25% paraformaldehyde 60 min, treated HIV diluted 1:8,000, 10 days post-inoculation | 1.25% paraformaldehyde 60 min, treated HIV diluted 1:8,000, 14 days post-inoculation | 1.25% paraformaldehyde 60 min, treated HIV diluted 1:80,000, 3 days post-inoculation | 1.25% paraformaldehyde 60 min, treated HIV diluted 1:80,000, 7 days post-inoculation | 1.25% paraformaldehyde 60 min, treated HIV diluted 1:80,000, 10 days post-inoculation | 1.25% paraformaldehyde 60 min, treated HIV diluted 1:80,000, 14 days post-inoculation | 1.25% paraformaldehyde 60 min, treated HIV diluted 1:800,000, 3 days post-inoculation | 1.25% paraformaldehyde 60 min, treated HIV diluted 1:800,000, 7 days post-inoculation | 1.25% paraformaldehyde 60 min, treated HIV diluted 1:800,000, 10 days post-inoculation | 1.25% paraformaldehyde 60 min, treated HIV diluted 1:800,000, 14 days post-inoculation | 2.5% paraformaldehyde 60 min, treated HIV diluted 1:8,000, 3 days post-inoculation | 2.5% paraformaldehyde 60 min, treated HIV diluted 1:8,000, 7 days post-inoculation | 2.5% paraformaldehyde 60 min, treated HIV diluted 1:8,000, 10 days post-inoculation | 2.5% paraformaldehyde 60 min, treated HIV diluted 1:8,000, 14 days post-inoculation | 2.5% paraformaldehyde 60 min, treated HIV diluted 1:80,000, 3 days post-inoculation | 2.5% paraformaldehyde 60 min, treated HIV diluted 1:80,000, 7 days post-inoculation | 2.5% paraformaldehyde 60 min, treated HIV diluted 1:80,000, 10 days post-inoculation | 2.5% paraformaldehyde 60 min, treated HIV diluted 1:80,000, 14 days post-inoculation | 2.5% paraformaldehyde 60 min, treated HIV diluted 1:800,000, 3 days post-inoculation | 2.5% paraformaldehyde 60 min, treated HIV diluted 1:800,000, 7 days post-inoculation | 2.5% paraformaldehyde 60 min, treated HIV diluted 1:800,000, 10 days post-inoculation | 2.5% paraformaldehyde 60 min, treated HIV diluted 1:800,000, 14 days post-inoculation | 5.0% paraformaldehyde 60 min, treated HIV diluted 1:8,000, 3 days post-inoculation | 5.0% paraformaldehyde 60 min, treated HIV diluted 1:8,000, 7 days post-inoculation | 5.0% paraformaldehyde 60 min, treated HIV diluted 1:8,000, 10 days post-inoculation | 5.0% paraformaldehyde 60 min, treated HIV diluted 1:8,000, 14 days post-inoculation | 5.0% paraformaldehyde 60 min, treated HIV diluted 1:80,000, 3 days post-inoculation | 5.0% paraformaldehyde 60 min, treated HIV diluted 1:80,000, 7 days post-inoculation | 5.0% paraformaldehyde 60 min, treated HIV diluted 1:80,000, 10 days post-inoculation | 5.0% paraformaldehyde 60 min, treated HIV diluted 1:80,000, 14 days post-inoculation | 5.0% paraformaldehyde 60 min, treated HIV diluted 1:800,000, 3 days post-inoculation | 5.0% paraformaldehyde 60 min, treated HIV diluted 1:800,000, 7 days post-inoculation | 5.0% paraformaldehyde 60 min, treated HIV diluted 1:800,000, 10 days post-inoculation | 5.0% paraformaldehyde 60 min, treated HIV diluted 1:800,000, 14 days post-inoculation
71.8 pg/mL: 0.625% paraformaldehyde 60 min, treated HIV diluted 1:8,000, 3 days post-inoculation
